Test results taken from ChEMBL document CHEMBL3991601, “The target landscape of clinical kinase drugs” (Science, 2017).
Structures can show the parent of a compound that is named as a salt. The source made the active and inactive calls.

How the values were obtained:
[1] = target: Tyrosine-protein kinase Fyn (Homo sapiens, UniProt P06241)
[2] = target: Activin receptor type-2B (Homo sapiens, UniProt Q13705)
[3] = target: T1, Rab-like protein 3 (Homo sapiens, UniProt Q5HYI8)
T1 sequence (Q5HYI8 whole entry): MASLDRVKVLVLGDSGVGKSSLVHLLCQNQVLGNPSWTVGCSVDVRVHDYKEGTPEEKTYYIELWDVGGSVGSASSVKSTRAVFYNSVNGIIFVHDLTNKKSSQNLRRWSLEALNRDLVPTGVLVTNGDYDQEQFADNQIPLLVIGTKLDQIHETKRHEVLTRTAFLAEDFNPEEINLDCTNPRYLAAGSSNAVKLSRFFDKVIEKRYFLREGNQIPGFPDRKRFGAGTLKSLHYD

[4] = target: Epidermal growth factor receptor (Homo sapiens, UniProt P00533)
Epidermal growth factor receptor, sequence (P00533 whole entry): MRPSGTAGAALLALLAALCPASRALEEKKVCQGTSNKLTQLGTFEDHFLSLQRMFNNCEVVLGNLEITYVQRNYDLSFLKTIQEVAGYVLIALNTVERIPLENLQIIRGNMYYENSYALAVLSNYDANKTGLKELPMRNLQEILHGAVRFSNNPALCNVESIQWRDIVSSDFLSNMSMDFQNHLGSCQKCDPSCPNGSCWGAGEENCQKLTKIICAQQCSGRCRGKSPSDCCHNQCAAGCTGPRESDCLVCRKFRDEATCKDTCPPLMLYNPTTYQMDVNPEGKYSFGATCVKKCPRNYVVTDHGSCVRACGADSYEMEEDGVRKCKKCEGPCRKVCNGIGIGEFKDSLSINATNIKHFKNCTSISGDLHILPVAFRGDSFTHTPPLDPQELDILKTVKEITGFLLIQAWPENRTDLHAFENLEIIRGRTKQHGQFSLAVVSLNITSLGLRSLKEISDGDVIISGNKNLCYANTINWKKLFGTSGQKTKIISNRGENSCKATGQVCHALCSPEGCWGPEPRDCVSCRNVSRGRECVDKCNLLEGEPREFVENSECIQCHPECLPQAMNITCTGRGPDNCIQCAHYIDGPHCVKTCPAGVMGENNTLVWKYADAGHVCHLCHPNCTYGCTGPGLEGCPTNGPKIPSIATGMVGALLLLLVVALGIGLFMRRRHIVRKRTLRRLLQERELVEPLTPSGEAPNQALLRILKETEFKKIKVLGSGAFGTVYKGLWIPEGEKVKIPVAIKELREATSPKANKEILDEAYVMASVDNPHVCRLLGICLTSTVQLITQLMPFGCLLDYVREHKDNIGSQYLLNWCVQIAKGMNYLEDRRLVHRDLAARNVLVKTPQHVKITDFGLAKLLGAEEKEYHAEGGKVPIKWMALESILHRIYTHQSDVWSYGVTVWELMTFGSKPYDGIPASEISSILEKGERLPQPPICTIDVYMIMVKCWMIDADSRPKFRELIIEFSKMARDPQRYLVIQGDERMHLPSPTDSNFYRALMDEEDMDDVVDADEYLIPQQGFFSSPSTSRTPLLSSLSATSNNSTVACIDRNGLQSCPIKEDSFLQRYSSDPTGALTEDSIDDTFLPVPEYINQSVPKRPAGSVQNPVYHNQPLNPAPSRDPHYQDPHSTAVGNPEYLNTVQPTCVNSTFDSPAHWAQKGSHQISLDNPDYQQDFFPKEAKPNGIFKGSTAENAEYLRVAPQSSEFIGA

[5] = target: T2, ATP-dependent RNA helicase DDX42 (Homo sapiens, UniProt Q86XP3)
T2 sequence (Q86XP3 whole entry): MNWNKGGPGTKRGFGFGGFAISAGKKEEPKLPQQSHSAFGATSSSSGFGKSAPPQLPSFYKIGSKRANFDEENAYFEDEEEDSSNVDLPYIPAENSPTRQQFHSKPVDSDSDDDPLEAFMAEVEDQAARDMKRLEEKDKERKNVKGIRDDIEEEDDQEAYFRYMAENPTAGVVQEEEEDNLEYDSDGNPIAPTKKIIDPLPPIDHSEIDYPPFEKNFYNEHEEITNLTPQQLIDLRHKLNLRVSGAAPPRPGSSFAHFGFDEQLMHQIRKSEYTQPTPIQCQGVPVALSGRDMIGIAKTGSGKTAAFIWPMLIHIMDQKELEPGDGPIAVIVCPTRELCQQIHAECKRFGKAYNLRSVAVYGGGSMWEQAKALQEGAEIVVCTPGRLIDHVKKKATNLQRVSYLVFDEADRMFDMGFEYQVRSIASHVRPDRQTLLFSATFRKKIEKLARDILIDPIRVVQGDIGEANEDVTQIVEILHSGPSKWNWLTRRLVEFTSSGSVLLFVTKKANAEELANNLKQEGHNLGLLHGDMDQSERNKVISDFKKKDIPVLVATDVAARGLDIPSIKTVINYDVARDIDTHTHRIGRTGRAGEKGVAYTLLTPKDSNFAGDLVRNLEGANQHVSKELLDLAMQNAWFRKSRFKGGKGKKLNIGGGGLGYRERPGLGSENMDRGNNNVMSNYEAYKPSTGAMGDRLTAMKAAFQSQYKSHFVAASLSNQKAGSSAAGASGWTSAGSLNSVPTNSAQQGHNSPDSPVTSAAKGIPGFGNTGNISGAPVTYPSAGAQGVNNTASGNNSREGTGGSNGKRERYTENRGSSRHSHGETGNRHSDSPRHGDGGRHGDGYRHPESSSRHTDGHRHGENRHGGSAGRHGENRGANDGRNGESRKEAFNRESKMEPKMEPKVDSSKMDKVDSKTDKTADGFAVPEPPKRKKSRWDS

[6] = target: Casein kinase I isoform gamma-1 (Homo sapiens, UniProt Q9HCP0)
Casein kinase I isoform gamma-1, sequence (Q9HCP0 whole entry, canonical isoform): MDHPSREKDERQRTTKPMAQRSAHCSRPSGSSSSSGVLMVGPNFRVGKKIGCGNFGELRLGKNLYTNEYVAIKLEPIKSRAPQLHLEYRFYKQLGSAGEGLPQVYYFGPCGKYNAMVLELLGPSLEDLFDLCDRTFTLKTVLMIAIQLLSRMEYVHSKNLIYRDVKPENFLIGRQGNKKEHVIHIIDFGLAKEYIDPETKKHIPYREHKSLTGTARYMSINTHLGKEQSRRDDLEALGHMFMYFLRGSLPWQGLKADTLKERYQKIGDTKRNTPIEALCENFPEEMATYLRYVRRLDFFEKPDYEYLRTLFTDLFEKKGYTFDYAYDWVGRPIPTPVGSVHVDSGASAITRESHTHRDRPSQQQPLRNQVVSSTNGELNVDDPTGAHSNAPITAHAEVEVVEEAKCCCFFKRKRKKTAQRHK

[7] = target: T3, Glycine--tRNA ligase (Homo sapiens, UniProt P41250)
T3 sequence (P41250 whole entry): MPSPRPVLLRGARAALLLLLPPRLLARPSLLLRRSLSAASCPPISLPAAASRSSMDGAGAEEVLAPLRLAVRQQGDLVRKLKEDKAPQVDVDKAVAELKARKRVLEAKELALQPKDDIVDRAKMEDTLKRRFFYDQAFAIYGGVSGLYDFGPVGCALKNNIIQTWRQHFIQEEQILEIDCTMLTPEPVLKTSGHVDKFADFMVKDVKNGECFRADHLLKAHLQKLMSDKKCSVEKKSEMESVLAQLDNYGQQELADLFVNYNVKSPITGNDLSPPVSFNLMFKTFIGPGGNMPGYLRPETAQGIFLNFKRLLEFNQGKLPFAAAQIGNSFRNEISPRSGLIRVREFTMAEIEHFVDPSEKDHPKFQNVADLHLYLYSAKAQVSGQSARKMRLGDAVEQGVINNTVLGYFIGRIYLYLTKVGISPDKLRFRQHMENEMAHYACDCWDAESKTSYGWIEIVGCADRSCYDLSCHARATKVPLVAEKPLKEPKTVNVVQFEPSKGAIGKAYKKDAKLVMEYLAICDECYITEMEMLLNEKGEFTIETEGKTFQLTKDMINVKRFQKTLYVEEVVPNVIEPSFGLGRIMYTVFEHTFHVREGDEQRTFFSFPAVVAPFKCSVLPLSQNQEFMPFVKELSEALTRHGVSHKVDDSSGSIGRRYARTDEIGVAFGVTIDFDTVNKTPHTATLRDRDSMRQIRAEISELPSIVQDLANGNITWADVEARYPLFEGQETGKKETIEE

[8] = target: Mitogen-activated protein kinase 10 (Homo sapiens, UniProt P53779)
Mitogen-activated protein kinase 10, sequence (P53779 whole entry): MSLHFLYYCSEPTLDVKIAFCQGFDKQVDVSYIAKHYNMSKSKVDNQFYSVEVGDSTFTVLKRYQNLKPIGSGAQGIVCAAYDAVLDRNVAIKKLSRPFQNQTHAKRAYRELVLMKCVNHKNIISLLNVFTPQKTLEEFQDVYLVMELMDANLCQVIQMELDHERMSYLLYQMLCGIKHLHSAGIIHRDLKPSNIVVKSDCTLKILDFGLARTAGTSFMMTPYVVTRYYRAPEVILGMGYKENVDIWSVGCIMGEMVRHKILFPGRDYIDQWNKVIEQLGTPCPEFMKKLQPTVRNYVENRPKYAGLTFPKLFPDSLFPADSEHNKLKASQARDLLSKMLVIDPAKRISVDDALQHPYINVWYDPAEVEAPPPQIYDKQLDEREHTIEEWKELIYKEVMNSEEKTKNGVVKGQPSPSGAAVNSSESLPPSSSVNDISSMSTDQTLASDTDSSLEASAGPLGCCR

[9] = target: Macrophage-stimulating protein receptor (Homo sapiens, UniProt Q04912)
Macrophage-stimulating protein receptor, sequence (Q04912 25-304 limits assumed): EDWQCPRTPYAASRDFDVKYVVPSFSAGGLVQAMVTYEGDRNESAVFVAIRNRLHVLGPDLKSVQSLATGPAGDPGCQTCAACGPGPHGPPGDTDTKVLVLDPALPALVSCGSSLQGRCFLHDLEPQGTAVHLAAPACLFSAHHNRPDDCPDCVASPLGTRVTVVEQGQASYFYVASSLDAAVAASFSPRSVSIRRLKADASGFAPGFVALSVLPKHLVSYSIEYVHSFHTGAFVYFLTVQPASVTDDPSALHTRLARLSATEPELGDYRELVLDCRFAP
Macrophage-stimulating protein receptor, sequence (Q04912 310-1400 limits assumed): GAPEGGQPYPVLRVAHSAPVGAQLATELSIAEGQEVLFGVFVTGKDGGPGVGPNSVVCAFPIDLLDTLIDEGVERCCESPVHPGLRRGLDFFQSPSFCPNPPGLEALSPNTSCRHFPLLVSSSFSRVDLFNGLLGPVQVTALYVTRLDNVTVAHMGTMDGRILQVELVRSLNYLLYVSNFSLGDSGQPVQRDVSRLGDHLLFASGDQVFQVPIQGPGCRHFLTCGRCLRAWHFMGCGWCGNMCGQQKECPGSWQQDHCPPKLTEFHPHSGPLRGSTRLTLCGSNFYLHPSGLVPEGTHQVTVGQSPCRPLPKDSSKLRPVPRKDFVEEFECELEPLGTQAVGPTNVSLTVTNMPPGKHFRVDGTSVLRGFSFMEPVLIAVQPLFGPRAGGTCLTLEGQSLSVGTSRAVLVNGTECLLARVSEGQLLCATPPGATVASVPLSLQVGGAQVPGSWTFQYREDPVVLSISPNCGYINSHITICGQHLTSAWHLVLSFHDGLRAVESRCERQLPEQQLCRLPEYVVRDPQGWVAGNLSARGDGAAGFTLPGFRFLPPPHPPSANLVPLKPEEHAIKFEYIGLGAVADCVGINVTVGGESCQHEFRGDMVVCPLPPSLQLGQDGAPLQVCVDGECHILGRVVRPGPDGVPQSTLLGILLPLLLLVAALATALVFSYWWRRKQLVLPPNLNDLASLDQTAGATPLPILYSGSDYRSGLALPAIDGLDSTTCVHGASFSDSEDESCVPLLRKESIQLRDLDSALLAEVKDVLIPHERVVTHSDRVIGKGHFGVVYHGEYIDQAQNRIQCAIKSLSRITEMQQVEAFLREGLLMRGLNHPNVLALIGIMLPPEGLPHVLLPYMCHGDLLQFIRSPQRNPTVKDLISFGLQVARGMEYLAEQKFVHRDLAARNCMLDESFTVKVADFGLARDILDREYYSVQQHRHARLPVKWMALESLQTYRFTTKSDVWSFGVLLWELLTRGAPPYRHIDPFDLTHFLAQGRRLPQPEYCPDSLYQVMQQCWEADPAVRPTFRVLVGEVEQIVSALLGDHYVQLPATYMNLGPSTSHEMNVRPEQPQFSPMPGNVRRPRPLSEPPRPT

[10] = target: Ribosomal protein S6 kinase alpha-3 (Homo sapiens, UniProt P51812)
Ribosomal protein S6 kinase alpha-3, sequence (P51812 whole entry): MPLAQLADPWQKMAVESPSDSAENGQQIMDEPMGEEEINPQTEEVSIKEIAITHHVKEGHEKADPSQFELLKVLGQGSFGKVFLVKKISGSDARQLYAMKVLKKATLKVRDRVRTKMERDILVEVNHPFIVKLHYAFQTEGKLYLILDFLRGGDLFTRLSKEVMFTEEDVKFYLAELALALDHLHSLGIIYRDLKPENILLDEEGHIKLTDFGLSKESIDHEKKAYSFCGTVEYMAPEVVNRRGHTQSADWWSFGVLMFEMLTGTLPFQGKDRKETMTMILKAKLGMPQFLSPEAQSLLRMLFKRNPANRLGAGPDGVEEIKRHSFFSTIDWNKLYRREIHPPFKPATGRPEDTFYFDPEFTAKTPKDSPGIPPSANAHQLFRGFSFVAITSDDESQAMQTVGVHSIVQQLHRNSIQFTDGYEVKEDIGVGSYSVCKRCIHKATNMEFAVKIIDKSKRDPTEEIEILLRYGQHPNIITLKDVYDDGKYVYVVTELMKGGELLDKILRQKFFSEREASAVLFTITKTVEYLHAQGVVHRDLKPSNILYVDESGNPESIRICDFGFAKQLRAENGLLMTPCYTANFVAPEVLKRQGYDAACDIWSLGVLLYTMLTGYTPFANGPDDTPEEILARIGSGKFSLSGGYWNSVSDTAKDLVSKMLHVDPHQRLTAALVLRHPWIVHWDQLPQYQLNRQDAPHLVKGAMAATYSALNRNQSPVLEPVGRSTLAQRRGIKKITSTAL

[11] = target: T4, cGMP-dependent protein kinase 1 (Homo sapiens, UniProt Q13976)
T4 sequence (Q13976 whole entry): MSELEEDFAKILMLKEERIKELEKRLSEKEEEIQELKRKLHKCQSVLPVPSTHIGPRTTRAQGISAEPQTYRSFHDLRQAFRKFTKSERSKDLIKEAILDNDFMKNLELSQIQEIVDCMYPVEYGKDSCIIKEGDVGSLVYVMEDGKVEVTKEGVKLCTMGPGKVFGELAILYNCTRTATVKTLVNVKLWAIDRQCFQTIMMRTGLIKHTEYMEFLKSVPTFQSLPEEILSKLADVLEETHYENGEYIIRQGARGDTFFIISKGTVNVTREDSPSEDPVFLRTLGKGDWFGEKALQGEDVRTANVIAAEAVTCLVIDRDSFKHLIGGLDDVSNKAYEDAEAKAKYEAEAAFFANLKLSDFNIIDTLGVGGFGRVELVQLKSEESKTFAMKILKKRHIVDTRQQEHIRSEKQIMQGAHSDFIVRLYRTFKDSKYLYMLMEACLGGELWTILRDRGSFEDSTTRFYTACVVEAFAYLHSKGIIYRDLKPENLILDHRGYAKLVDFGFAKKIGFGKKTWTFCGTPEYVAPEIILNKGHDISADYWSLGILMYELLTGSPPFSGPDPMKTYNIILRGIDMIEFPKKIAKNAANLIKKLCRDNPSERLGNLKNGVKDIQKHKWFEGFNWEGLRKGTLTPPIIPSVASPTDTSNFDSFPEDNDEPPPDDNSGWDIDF
Note: in the data inactive means no Kd found up to 30 µM.

Tyrosine-protein kinase Fyn, sequence (P06241 whole entry): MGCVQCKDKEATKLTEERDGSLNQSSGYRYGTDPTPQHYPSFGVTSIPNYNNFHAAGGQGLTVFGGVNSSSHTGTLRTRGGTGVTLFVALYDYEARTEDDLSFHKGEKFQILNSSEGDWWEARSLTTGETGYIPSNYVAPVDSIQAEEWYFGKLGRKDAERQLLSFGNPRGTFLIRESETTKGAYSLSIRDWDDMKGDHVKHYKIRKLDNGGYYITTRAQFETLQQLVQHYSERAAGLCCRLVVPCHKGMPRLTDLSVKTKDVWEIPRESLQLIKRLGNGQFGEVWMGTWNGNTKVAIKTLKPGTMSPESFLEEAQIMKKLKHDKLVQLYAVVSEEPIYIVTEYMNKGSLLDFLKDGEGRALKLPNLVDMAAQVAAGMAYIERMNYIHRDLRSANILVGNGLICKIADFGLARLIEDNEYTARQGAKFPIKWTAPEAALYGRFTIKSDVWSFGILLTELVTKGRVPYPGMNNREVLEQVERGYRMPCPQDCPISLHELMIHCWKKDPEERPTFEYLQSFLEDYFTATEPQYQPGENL

SMILES	Kd [1]	Kd [2]	Kd [3]	Kd [4]	Kd [5]	Kd [6]	Kd [7]	Kd [8]	Kd [9]	Kd [10]	Kd [11]
C[C@@H](Oc1cc(C(=O)Nc2ccc(C(=O)N3CCN(C)CC3)cc2)nnc1N)c1c(Cl)ccc(F)c1Cl	> 30 µM (inactive)	> 30 µM (inactive)	> 30 µM (inactive)	> 30 µM (inactive)	> 30 µM (inactive)	> 30 µM (inactive)	> 30 µM (inactive)	> 30 µM (inactive)	> 30 µM (inactive)	> 30 µM (inactive)	> 30 µM (inactive)
C[C@H]1CNCCCN1S(=O)(=O)c1cccc2cncc(F)c12	> 30 µM (inactive)	> 30 µM (inactive)	> 30 µM (inactive)	> 30 µM (inactive)	> 30 µM (inactive)	> 30 µM (inactive)	> 30 µM (inactive)	> 30 µM (inactive)	> 30 µM (inactive)	> 30 µM (inactive)	> 30 µM (inactive)
CCNC(=O)C#Cc1ccc2c(c1)NC(=O)/C2=C(\Nc1ccc(CN(C)C)cc1)c1ccccc1	0.187 µM (active)	> 30 µM (inactive)	> 30 µM (inactive)	> 30 µM (inactive)	> 30 µM (inactive)	> 30 µM (inactive)	> 30 µM (inactive)	> 30 µM (inactive)	> 30 µM (inactive)	0.734 µM (active)	> 30 µM (inactive)
C=CC(=O)N1CCC[C@H](n2c(=O)n(-c3ccc(Oc4ccccc4)cc3)c3c(N)ncnc32)C1	0.005 µM	> 30 µM (inactive)	> 30 µM (inactive)	0.019 µM (active)	> 30 µM (inactive)	> 30 µM (inactive)	> 30 µM (inactive)	> 30 µM (inactive)	> 30 µM (inactive)	> 30 µM (inactive)	> 30 µM (inactive)
Cc1nc2cc(-c3nn(C(C)C)c4ncnc(N)c34)ccc2o1	> 30 µM (inactive)	0.901 µM (active)	> 30 µM (inactive)	> 30 µM (inactive)	> 30 µM (inactive)	> 30 µM (inactive)	> 30 µM (inactive)	> 30 µM (inactive)	> 30 µM (inactive)	> 30 µM (inactive)	> 30 µM (inactive)
COCc1c(-c2ccc(NC(=O)Nc3cc(C(F)(F)F)ccc3F)c(F)c2)c2c(N)ncnn2c1CN1CCOCC1	> 30 µM (inactive)	> 30 µM (inactive)	> 30 µM (inactive)	> 30 µM (inactive)	> 30 µM (inactive)	> 30 µM (inactive)	> 30 µM (inactive)	> 30 µM (inactive)	> 30 µM (inactive)	5.31 µM (active)	> 30 µM (inactive)
Nc1ncnc2c1c(-c1cccc(OCc3ccccc3)c1)cn2[C@H]1C[C@@H](CN2CCC2)C1 [AEW-541]	> 30 µM (inactive)	> 30 µM (inactive)	> 30 µM (inactive)	> 30 µM (inactive)	> 30 µM (inactive)	> 30 µM (inactive)	> 30 µM (inactive)	> 30 µM (inactive)	> 30 µM (inactive)	> 30 µM (inactive)	> 30 µM (inactive)
Cc1csc(-c2nnc(Nc3ccc(Oc4ncccc4-c4ccnc(N)n4)cc3)c3ccccc23)c1 [AMG-900]	> 30 µM (inactive)	> 30 µM (inactive)	> 30 µM (inactive)	> 30 µM (inactive)	> 30 µM (inactive)	> 30 µM (inactive)	> 30 µM (inactive)	> 30 µM (inactive)	> 30 µM (inactive)	> 30 µM (inactive)	> 30 µM (inactive)
C=CC(=O)Nc1cc2c(Nc3ccc(F)c(Cl)c3)ncnc2cc1C#CC(C)(C)N1CCN(C)CC1 [AV-412 FREE BASE]	> 30 µM (inactive)	> 30 µM (inactive)	> 30 µM (inactive)	0.01 µM (active)	> 30 µM (inactive)	> 30 µM (inactive)	> 30 µM (inactive)	> 30 µM (inactive)	> 30 µM (inactive)	> 30 µM (inactive)	> 30 µM (inactive)
COc1cc([C@@H]2c3cc4c(cc3[C@H](O)[C@H]3COC(=O)[C@@H]23)OCO4)cc(OC)c1OC [AXL-1717]	> 30 µM (inactive)	> 30 µM (inactive)	> 30 µM (inactive)	> 30 µM (inactive)	> 30 µM (inactive)	> 30 µM (inactive)	> 30 µM (inactive)	> 30 µM (inactive)	> 30 µM (inactive)	> 30 µM (inactive)	> 30 µM (inactive)
Cc1cc(C(=O)NOCCO)c(Nc2ccc(I)cc2F)n(C)c1=O [AZD-8330]	> 30 µM (inactive)	> 30 µM (inactive)		> 30 µM (inactive)	> 30 µM (inactive)	> 30 µM (inactive)	> 30 µM (inactive)	> 30 µM (inactive)	> 30 µM (inactive)	> 30 µM (inactive)	> 30 µM (inactive)
CCS(=O)(=O)N1CCN(c2ccc(Nc3ncc(C(N)=O)c(NC4CC4)n3)cc2)CC1 [Cerdulatinib Hydrochloride]	> 30 µM (inactive)	> 30 µM (inactive)	> 30 µM (inactive)	> 30 µM (inactive)	> 30 µM (inactive)	> 30 µM (inactive)	> 30 µM (inactive)		> 30 µM (inactive)	5.89 µM (active)	> 30 µM (inactive)
CNC(=O)c1cccc2cc(Oc3ccnc4cc(OCC5(N)CC5)c(OC)cc34)ccc12 [LUCITANIB]	> 30 µM (inactive)	> 30 µM (inactive)		> 30 µM (inactive)	> 30 µM (inactive)	> 30 µM (inactive)	> 30 µM (inactive)	> 30 µM (inactive)	> 30 µM (inactive)	> 30 µM (inactive)	> 30 µM (inactive)
